This assay can be described thus: Inhibition of hedgehog signaling pathway in mouse Shh Light2 cells assessed as inhibition of sonic hedgehog-induced GLI1-mediated transcriptional activity measured after 30 hrs by dual luciferase reporter gene assay. In kind it is cell-based. Conditions: Shh Light2, 30 h. (Reporter assays use an easily measured gene product as a stand-in for the process of interest.)

Experimental findings from ChEMBL document CHEMBL3861982, “Three new alkaloids from Veratrum grandiflorum Loes with inhibition activities on Hedgehog pathway” (Bioorg Med Chem Lett, 2016) are described below.

The structures appear in SMILES notation. Some results are limits rather than exact numbers.

What is called IC50 is the concentration needed to halve the response being measured. In the case of `CC(=O)O[C@@H]1C[C@H]2[C@@H](CC=C3C[C@@H](O[C@@H]4O[C@H](CO)[C@@H](O)[C@H](O)[C@H]4O)CC[C@@]32C)[C@@H]2CC[C@H]([C@H](C)C3=NC[C@H](C)CC3=O)[C@@]12C`, the 50% inhibitory concentration (IC50) worked out at 1110 nM.

On to `CC(=O)O[C@@H]1C[C@H]2[C@@H](CC=C3C[C@@H](O)CC[C@@]32C)[C@@H]2CC[C@H]([C@@](C)(O)C3=NC[C@H](C)CC3)[C@@]12C`, for which the half-inhibitory concentration (IC50) came to 3110 nM.

`Cc1c([C@H](C)[C@H]2CC[C@H](C)CN2)ccc2c1C[C@H]1[C@H]2CC=C2C[C@@H](O)CC[C@@]21C`: the IC50 is 630 nM.

With `CC(=O)O[C@H]1C[C@H]2[C@@H]3CC=C4C[C@@H](O[C@@H]5O[C@H](CO)[C@@H](O)[C@H](O)[C@H]5O)CC[C@]4(C)[C@H]3CC[C@]2(C)[C@H]1[C@H](C)C1=NC[C@H](C)CC1`, the IC50 was above 25000 nM.

For `C[C@H]1CC[C@@H]2[C@@H](C)[C@H]3[C@H](C[C@H]4[C@@H]5CC=C6C[C@@H](O)CC[C@]6(C)[C@H]5CC[C@]34C)N2C1`, the IC50 was above 25000 nM.

Take `CC1=C2C[C@H]3[C@@H](CC=C4C[C@@H](O)CC[C@@]43C)[C@@H]2CC[C@]12O[C@@H]1C[C@H](C)CN[C@H]1[C@H]2C` [CYCLOPAMINE]: the half-maximal inhibitory concentration (IC50) came out at 74.1 nM.

For the compound `C/C=C(/C)C(=O)O[C@H]1CC[C@@]2(C)[C@@H]3CC[C@H]4[C@]5(O)[C@@H](O)[C@H](O)[C@H]6[C@@H](CN7C[C@@H](C)CC[C@H]7[C@@]6(C)O)[C@@H]5C[C@@]42O[C@@]13O`, the 50% inhibitory concentration (IC50) was above 25000 nM.

In the case of `CC(=O)O[C@@H]1C[C@H]2[C@@H](CC=C3C[C@@H](O[C@@H]4O[C@H](CO)[C@@H](O)[C@H](O)[C@H]4O)CC[C@@]32C)[C@@H]2CC[C@H]([C@@](C)(O)C3=NC[C@H](C)CC3)[C@@]12C`, the IC50 was 2780 nM.
